# Data taken from US8080371B2, “Markers for addiction” (The Washington University, priority 2006, dated 2011).
# What was measured:
# [1] = cigarette smoking, background statement; cited from earlier work
# [2] = target: T1, α4β2α5D398 nAChR heterologously expressed in HEK293T cells (Mus musculus, UniProt O70174+Q9ERK7); test: Aequorin-based luminescence assay of agonist-evoked changes in intracellular calcium; assay type: cell-based
# T1 construct: expressed in transfected cells; host or cells: HEK293T
# T1 sequence (Q2MKA5 30-467): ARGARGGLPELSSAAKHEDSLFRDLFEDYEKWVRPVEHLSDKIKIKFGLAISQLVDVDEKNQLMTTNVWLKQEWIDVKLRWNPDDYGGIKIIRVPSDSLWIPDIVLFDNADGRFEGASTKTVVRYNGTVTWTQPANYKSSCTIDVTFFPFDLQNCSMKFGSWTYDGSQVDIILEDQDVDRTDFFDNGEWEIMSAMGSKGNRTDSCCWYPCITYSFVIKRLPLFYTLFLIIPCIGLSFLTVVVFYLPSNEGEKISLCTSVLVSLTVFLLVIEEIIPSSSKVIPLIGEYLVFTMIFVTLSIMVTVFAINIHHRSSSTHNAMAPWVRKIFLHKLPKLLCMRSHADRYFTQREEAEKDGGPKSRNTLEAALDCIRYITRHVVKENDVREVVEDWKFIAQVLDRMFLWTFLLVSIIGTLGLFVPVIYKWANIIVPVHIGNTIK
# T1 sequence (Q9ERK7 26-501): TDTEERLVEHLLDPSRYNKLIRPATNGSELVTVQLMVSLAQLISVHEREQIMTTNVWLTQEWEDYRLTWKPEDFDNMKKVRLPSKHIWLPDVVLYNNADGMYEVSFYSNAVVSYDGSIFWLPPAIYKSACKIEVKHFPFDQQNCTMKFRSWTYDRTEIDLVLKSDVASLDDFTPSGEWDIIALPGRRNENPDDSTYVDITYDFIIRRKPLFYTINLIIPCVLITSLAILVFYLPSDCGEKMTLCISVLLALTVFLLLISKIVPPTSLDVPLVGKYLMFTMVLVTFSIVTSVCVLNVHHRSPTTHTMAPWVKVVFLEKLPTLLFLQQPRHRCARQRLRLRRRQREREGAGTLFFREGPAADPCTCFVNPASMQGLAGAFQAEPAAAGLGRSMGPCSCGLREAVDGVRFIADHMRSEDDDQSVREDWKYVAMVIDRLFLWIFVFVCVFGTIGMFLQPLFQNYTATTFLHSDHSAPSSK
# T1 sequence (O70174 31-629): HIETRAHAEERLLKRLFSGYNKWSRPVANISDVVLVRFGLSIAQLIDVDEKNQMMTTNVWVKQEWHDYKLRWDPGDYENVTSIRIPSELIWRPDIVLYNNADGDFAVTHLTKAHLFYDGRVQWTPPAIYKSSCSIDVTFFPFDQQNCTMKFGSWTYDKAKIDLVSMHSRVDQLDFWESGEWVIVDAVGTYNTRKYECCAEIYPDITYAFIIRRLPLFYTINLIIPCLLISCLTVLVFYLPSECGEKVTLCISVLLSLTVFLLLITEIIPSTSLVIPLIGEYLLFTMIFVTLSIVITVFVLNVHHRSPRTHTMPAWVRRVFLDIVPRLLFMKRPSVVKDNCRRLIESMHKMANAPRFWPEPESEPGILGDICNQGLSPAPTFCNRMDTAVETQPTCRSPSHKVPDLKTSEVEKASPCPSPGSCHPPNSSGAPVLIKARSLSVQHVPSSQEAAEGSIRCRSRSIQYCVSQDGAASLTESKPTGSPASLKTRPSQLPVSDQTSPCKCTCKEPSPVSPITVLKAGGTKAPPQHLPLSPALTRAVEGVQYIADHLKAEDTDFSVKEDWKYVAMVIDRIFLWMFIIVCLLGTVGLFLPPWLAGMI
# Experimental: (§1) HEK293T cells were maintained at 37° C. in a humidified, 5% CO2 environment in Dulbecco's modified Eagle's medium (high glucose, no pyruvate) (DMEM), 10% heat-inactivated fetal bovine serum and antibiotic/antimycotic (100 U/mL penicillin, 100 μg/mL streptomycin and 0.25 μg/mL amphotericin B). Culture reagents were purchased from either Biowhittaker (East Rutherford, N.J., USA) or Invitrogen (Carlsbad, Calif., USA).
# Agonist-evoked changes in intracellular calcium was performed using an aequorin-based luminescence assay as previously described (Karadsheh et al., 2004). […]
# For the epibatidine concentration-response curves, 50 μL of cells were added to each well of a 96-well opaque white plate and placed in a Victor3V plate reader (Perkin Elmer). Following a 1 second baseline read, 50 μl epibatidine was injected onto each sample and luminescence was recorded at 0.2 s intervals for 20 s immediately following the addition of agonist. At the completion of the agonist stimulation, 100 μL of a solution containing 0.1% Triton X-100 and 100 mM CaCl2 was injected into each well and luminescence was recorded for 5 s at 0.1 s intervals. […]
# [3] = target: T2, α4β2α5N398 nAChR heterologously expressed in HEK293T cells (Mus musculus, UniProt O70174+Q2MKA5+Q9ERK7, D397N); test: cell-based
# T2 construct: expressed in transfected cells; host or cells: HEK293T
# T2 sequence (Q2MKA5 30-467 D397N): as the sequence (Q2MKA5 30-467) above, with D368N counted along it
# T2 sequence (O70174 31-629): as the sequence (O70174 31-629) above
# T2 sequence (Q9ERK7 26-501): as the sequence (Q9ERK7 26-501) above
# Experimental: as §1
# (§2) Agonist-evoked changes in intracellular calcium was performed using an aequorin-based luminescence assay as previously described (Karadsheh et al., 2004). HEK293T cells were seeded onto six-well plates (1.5×10^6 cells/well) and were transfected the following day with plasmids (0.25 μg/well for each plasmid) containing a human codon-optimized aequorin cDNA (Vernon and Printen 2002), the mouse α4 and β2 cDNAs and either the wild-type mouse α5 cDNA (D398) or a mouse α5 cDNA in which D398 was mutated to N398. Transfection was performed using either the LipofectAmine Plus Reagent (Invitrogen) or Fugene HD transfection reagent (Roche, Indianapolis, Ind.) as recommended by the manufacturers. […]
# (§3) For the epibatidine concentration-response curves, 50 μL of cells were added to each well of a 96-well opaque white plate and placed in a Victor3V plate reader (Perkin Elmer). Following a 1 second baseline read, 50 μl epibatidine was injected onto each sample and luminescence was recorded at 0.2 s intervals for 20 s immediately following the addition of agonist. At the completion of the agonist stimulation, 100 μL of a solution containing 0.1% Triton X-100 and 100 mM CaCl2 was injected into each well and luminescence was recorded for 5 s at 0.1 s intervals. In order to control for differences in cell number per well as well as variation in transfection efficiency and coelenterazine loading, agonist responses were normalized by dividing the maximal peak value for the agonist-stimulated luminescence (L) by the total peak luminescence value (Lmax) (maximal peak agonist-stimulated luminescence+maximal peak luminescence resulting from cell lysis in the presence of high calcium).
# [4] = test system: α4β2α5N398 nAChR heterologously expressed in HEK293T cells; test: cell-based; design: species or system mouse; conditions: p<0.0005
# Experimental: as §1, §2, §3
SMILES,time to peak drug level in brain after inhalation [1],EC50 [2],"maximal response to agonist per receptor ([2]; L/Lmax divided by fmol of nAChR per sample well, α4β2α5D398, mean ± SEM, N=12)",EC50 [3],"maximal response to agonist per receptor ([3]; L/Lmax divided by fmol of nAChR per sample well, α4β2α5N398, mean ± SEM, N=12)","maximal response to agonist per receptor, α4β2α5N398 relative to α4β2α5D398 [4]"
CN1CCCC1c1cccnc1 (stereo not drawn) [nicotine],≤ 10 s,,,,,
Clc1ccc(C2CC3CCC2N3)cn1 (stereo not drawn) [epibatidine],,0.0259 ± 0.0015 nM,0.147±0.01,0.0191 ± 0.0014 nM,0.356±0.022,over two-fold higher
